Results reported in article PMC10636063, “Progesterone activation of β1-containing BK channels involves two binding sites” (Nature Communications, 2023).
Values joined by “and” are separate entries in the source; they are usually repeats but may differ in a detail not shown here. Equal values may be shown once.

Tests used:
[1] = biological target: T1, smooth muscle myocyte BK channels (KCNMB1-/-) (Mus musculus, UniProt Q08460); assay: Inside-out patch-clamp of MCA smooth muscle myocytes, KCNMB1-/- mice; type: cell-based; settings: for normalized NPo, time course Fig 5C: beta1KO, PROG 10uM
T1 construct: endogenous in cells; host or cells: freshly isolated middle cerebral artery smooth muscle cells of KCNMB1-/- mice, inside-out patches
T1 sequence (Q08460 whole entry): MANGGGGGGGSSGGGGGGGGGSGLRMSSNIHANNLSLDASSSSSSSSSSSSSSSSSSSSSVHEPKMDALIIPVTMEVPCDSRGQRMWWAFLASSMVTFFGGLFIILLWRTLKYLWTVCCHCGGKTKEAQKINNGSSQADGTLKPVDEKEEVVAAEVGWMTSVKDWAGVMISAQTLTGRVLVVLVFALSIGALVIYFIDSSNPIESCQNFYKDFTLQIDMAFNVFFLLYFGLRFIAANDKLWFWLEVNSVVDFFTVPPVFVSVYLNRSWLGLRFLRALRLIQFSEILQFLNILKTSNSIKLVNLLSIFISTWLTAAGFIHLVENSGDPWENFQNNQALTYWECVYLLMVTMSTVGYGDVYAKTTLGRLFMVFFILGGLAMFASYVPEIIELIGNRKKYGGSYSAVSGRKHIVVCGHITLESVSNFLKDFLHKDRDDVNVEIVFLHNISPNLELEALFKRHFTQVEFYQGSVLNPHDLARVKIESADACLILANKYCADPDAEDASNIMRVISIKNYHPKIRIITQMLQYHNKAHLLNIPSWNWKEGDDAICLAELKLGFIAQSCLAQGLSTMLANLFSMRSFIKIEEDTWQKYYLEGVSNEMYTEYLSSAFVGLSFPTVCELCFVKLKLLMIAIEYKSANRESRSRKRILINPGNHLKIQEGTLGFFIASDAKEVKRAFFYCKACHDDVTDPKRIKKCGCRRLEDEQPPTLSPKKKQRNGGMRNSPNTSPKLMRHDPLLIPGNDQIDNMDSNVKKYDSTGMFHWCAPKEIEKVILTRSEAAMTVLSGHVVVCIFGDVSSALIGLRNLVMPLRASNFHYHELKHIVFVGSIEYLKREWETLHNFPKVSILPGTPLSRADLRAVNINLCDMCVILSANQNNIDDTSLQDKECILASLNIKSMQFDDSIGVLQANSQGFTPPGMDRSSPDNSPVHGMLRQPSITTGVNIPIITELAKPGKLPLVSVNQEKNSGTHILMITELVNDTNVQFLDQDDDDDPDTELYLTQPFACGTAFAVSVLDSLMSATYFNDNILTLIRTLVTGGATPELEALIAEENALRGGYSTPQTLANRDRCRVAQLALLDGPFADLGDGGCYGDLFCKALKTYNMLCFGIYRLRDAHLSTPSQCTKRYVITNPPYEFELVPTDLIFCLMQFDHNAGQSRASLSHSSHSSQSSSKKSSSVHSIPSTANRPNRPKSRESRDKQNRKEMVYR
Description: Ionic currents were recorded from excised, inside-out (I/O) patches. […] In all experiments, free [Ca^2+] in solution was adjusted to the desired value by adding the appropriate amount of Ca^2+ from a 1 mM CaCl2 stock. An agar bridge with Cl^- as main anion was used as ground electrode. Solutions were applied onto the cytosolic side of I/O patches using an automated, pressurized system (Octaflow; […] Ionic currents at single channel resolution were recorded using an EPC8 amplifier (HEKA) at 1 kHz. Data were digitized at 5 kHz using a Digidata […] A/D converter and pCLAMP 8.0 (Molecular Devices); n = 5/group. […] Drug-induced NPo changes were determined by comparing baseline NPo (i.e., NPo with the patch/cell perfused with bath solution) to the NPo from the same patch/cell exposed to the agent under study (DMSO/PROG/oxime) dissolved in bath solution.

[2] = biological target: T2, slo1 (cbv1) homotetramers (Rattus norvegicus, UniProt Q62976); assay: Channel activity (NPo) in POPE/POPS bilayers, cbv1 homomers; type: biochemical
T2 construct: made in house; host or cells: CHO cells, transient transfection; sucrose-gradient membrane preparation
T2 sequence (Q62976 1-1148 isoform Q62976-2): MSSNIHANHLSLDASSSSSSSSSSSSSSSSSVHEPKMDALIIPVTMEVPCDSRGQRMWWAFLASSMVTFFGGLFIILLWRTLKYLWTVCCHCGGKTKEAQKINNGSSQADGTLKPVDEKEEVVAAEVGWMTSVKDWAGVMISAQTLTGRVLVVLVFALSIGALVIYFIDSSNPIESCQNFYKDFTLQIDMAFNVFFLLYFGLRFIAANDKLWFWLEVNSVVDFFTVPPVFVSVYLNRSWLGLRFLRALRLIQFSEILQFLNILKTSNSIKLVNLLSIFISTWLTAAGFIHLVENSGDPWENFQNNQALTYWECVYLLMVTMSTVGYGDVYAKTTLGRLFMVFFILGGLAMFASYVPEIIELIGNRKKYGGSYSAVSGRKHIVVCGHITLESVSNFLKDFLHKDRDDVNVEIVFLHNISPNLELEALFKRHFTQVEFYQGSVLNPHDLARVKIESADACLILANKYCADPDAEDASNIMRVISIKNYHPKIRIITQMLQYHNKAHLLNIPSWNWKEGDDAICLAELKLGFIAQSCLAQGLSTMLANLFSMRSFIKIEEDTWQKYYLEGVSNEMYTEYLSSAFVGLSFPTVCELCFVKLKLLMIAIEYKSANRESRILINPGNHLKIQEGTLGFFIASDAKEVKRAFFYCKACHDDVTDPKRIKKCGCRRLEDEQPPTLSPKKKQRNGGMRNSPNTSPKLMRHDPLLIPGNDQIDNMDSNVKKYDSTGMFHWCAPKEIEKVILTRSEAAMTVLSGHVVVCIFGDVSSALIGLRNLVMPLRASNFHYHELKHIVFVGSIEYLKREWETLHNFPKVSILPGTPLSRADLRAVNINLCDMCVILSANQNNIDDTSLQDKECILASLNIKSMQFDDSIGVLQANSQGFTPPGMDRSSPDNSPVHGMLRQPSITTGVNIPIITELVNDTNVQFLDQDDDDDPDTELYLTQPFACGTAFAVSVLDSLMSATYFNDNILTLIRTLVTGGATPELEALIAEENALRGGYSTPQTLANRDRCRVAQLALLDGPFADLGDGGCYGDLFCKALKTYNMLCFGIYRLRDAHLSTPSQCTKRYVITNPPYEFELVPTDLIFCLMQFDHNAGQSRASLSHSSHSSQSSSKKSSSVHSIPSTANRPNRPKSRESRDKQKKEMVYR
Description: BK channel-forming slo1 cDNA (cbv1 isoform; AY330293) was cloned from rat cerebral artery SM cells, and inserted into pcDNA3.1 vector as described. BK β1 cDNA (KCNMB1 product; NP_011452; FJ154955) were isolated from rat cerebral artery SM cells and cloned as described. β4 cDNA (KCNMB4; NP_055320; AY028605) were generously provided by Dr. Ligia Toro. CHO cells were transiently transfected with cbv1 ± β1-, or β4-carrying pcDNA3.1 using X-tremeGENE HP (Sigma-Aldrich). Mutations to β1/4 cDNAs were conducted by Genscript, with sequences being confirmed to be >99% identical to KCNMB1 product; NP_011452 or β4 KCNMB4; NP_055320; respectively. β1/4 and mutant constructs were flag-tagged (DYKDDDDK-tag) by Genscript services for subsequent immunoprecipitation and use in microscale thermophoresis studies.
Proteins for electrophysiological recordings in artificial lipid bilayers remained untagged. Cells were transiently transfected as described above, pelleted and re-suspended on ice in 10 ml of buffer solution of the following composition (mM): 30 KCl, 2 MgCl2, 10 HEPES, 5 EGTA; pH 7.2. A membrane preparation was obtained using a sucrose gradient as described. Aliquots were stored at −80 °C. BK channel-mediated ionic current was recorded in planar lipid bilayers consisting of a POPE:POPS 3:1 (w/w) mixture. Lipid mixtures were dried under N2 and re-suspended in 25 mg/ml of n-decane BK currents following incorporation into horizontal bilayers at 300/30 mM cis/trans gradient as detailed elsewhere. Ion currents were obtained during a 10-min gap-free recording at 0 mV in the presence of 0.01, 10 μM PROG, 10 μM PROG-oxime, or vehicle control (dimethyl sulfoxide; DMSO). Currents were obtained in gap-free mode using a Warner BC-525D amplifier, low pass-filtered at 1 kHz and sampled at 5 kHz with Digidata 1550B/pCLAMP 11 (Molecular Devices). For comparison with previous data from us[16],[17],[45]–[47], studies were conducted at 20–22 °C. PROG stock, oxime stock or vehicle control (DMSO) was added to the bilayer cis chamber to reach final concentrations (0.01–10 µM), with all compounds being dissolved with the same concentration of DMSO (0.1%); n = 5–10 for each group.
Patch-clamp and bilayer data were analyzed using Clampfit 10.7 software (Molecular Devices). NPo was used as an index of channel steady-state activity where N = number of channels in the patch (defined as a maximal number of opening levels at Po≤1) and Po=single channel open probability. Drug-induced NPo changes were determined by comparing baseline NPo (i.e., NPo with the patch/cell perfused with bath solution) to the NPo from the same patch/cell exposed to the agent under study (DMSO/PROG/oxime) dissolved in bath solution. NPo and mean open time values were automatically calculated using Clampfit 10.7, the latter using a 50% threshold detection event.

CC(=O)[C@H]1CC[C@H]2[C@@H]3CCC4=CC(=O)CC[C@]4(C)[C@H]3CC[C@]12C [PROG, Progesterone]
action on BK channel activity ([1]; 10 µM, I/O patches, 30 μM free Ca2+): consistently resistant to PROG
normalized NPo, scatter Fig 5D ([1]; KO, PROG, single cells (same values as 5C time 13)): 1.285 and 0.9695 and 0.9053 and 0.9515 and 1.0301
normalized NPo, time course Fig 5C ([1]; time 1 (normalisation reference), columns = cell number): 1
normalized NPo, time course Fig 5C ([1]; time 2): 0.9681 and 1.062 and 1.027 and 1.211 and 0.9954
normalized NPo, time course Fig 5C ([1]; time 3): 0.9157 and 1.074 and 1.107 and 1.076 and 1.008
normalized NPo, time course Fig 5C ([1]; time 4): 1.013 and 0.9333 and 1.023 and 1.02 and 0.9985
normalized NPo, time course Fig 5C ([1]; time 5): 0.8445 and 0.9395 and 0.9666 and 0.9766 and 1.044
normalized NPo, time course Fig 5C ([1]; time 6): 1.335 and 0.9407 and 1.013 and 1.133 and 0.9069
normalized NPo, time course Fig 5C ([1]; time 7): 1.401 and 0.9722 and 0.9298 and 1.141 and 1.008
normalized NPo, time course Fig 5C ([1]; time 8): 0.9307 and 0.9753 and 1 and 1.059 and 0.9374
normalized NPo, time course Fig 5C ([1]; time 9): 0.8843 and 0.9534 and 0.8763 and 1.168 and 1.029
normalized NPo, time course Fig 5C ([1]; time 10): 0.9107 and 1 and 0.9833 and 1.22 and 0.9731
normalized NPo, time course Fig 5C ([1]; time 11): 0.9343 and 1.019 and 1.187 and 1.237 and 0.9145
normalized NPo, time course Fig 5C ([1]; time 13): 0.9053 and 0.9515 and 1.0301 and 1.285 and 0.9695
normalized NPo, time course Fig 5C ([1]; time 14): 0.872 and 0.9873 and 0.9766 and 1.12 and 1.0626
normalized NPo, time course Fig 5C ([1]; time 15): 0.8834 and 0.9392 and 0.9933 and 1.107 and 1.032
normalized NPo, time course Fig 5C ([1]; time 16): 0.8292 and 1.033 and 0.8763 and 1.072 and 0.8061
normalized NPo, time course Fig 5C ([1]; time 17): 0.881 and 1.326 and 0.8485 and 1.237 and 0.7481
normalized NPo, time course Fig 5C ([1]; time 18): 0.8971 and 1.152 and 0.7759 and 1.189 and 1.06
normalized NPo, time course Fig 5C ([1]; time 19): 0.8576 and 1.179 and 0.7388 and 1.176 and 0.8214
normalized NPo, time course Fig 5C ([1]; time 20): 0.8348 and 0.9401 and 0.8127 and 1.189 and 0.8275
normalized NPo, time course Fig 5C ([1]; time 21): 0.9702 and 1.112 and 0.8729 and 1.098 and 1.041
normalized NPo, time course Fig 5C ([1]; time 22): 0.9222 and 1.09 and 0.9773 and 1.02
NPo/NPobasal ([2]; 10 µM PROG, min 2, single records): 1.014 and 0.7178 and 0.9853 and 1 and 0.9322
NPo/NPobasal ([2]; 10 µM PROG, min 4, single records): 1.047 and 1.067 and 1.015 and 1.069 and 1.029
NPo/NPobasal ([2]; 10 µM PROG, min 5, single records): 1.023 and 1.182 and 1.11 and 1.053 and 1.066
NPo/NPobasal ([2]; 10 µM PROG, min 6, single records): 1.028 and 1.207 and 1.088 and 1.041 and 1.129
NPo/NPobasal ([2]; 10 µM PROG, min 7, single records): 0.8935 and 1.1318 and 1.162 and 1.118 and 1.064
NPo/NPobasal ([2]; 10 µM PROG, min 8, single records): 1.148 and 1.63 and 1.096 and 1.061 and 1.045
NPo/NPobasal ([2]; 10 µM PROG, min 10, single records): 1.394 and 1.416 and 1.11 and 0.7114 and 1.049
maximal activity (NPo/NPobasal) ([2]; 10 µM PROG, single records (Fig 1I)): 1.053 and 1.066 and 1.023 and 1.182 and 1.11
action on channel activity (NPo) ([2]; 10 μM, up to 10 min): consistently failed to activate the homomeric channels
